# Assay results as given in US20230357253A1, “AGONISTS OF STIMULATOR OF INTERFERON GENES STING” (THE SCRIPPS RESEARCH INSTITUTE, priority 2020, published 2023).
# pEC50, pIC50: −log10 of the molar value.
# Key:
# human STING protein = human STING protein (Homo sapiens (Human), UniProt Q86WV6); experiment: WT STING binding assay (HTRF, competition with labeled 2′3′cGAMP); details: recombinant 6×His-tagged human STING, three hours at room temperature
# In short: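 Competitive HTRF binding: 10-point compound titration incubated 3 h at room temperature with 6×His-tagged human STING and labeled 2′3′cGAMP; FRET read at 665 nm. IC50 by curve fitting; percent inhibition relative to maximal binding of unlabeled 2′3′cGAMP control.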
# THP-1 Lucia ISG cells = experiment: ISRE-luciferase assay (ISG-LUC activation); format: cell-based; details: Homo sapiens, THP1-Lucia ISG, 24 hours, luciferase reporter
# In short: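 THP-1 Lucia ISG cells at 5×10^5 cells/ml in 2% FBS medium were treated with test article or DMSO vehicle for 24 h. Secreted luciferase was read by luminescence and normalized to vehicle, reported as RLU.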
# human STING protein, sequence (Q86WV6 whole entry): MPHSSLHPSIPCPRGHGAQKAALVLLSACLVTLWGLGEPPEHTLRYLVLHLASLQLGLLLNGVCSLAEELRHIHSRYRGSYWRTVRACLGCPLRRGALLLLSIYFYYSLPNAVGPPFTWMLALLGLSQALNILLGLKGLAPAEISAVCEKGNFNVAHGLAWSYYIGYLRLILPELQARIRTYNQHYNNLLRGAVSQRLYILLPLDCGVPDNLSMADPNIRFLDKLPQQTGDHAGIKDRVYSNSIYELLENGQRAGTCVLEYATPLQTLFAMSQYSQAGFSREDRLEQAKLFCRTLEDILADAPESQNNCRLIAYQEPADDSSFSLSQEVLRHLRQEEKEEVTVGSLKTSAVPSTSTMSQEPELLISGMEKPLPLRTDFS
Structure (SMILES),pIC50 (human STING protein),pEC50 (THP-1 Lucia ISG cells)
O=C(Nc1cc(CCCc2cc(NC(=O)c3cc4nnnn4nn3)c(C(=O)O)cc2F)c(F)cc1C(=O)O)c1ccc(-c2cn[nH]c2)nn1 [Compound 192],7.00 to 8.00,5.30 to 6.30
O=C(Nc1cc(CCOc2cc(NC(=O)c3ccc4nnnn4n3)c(C(=O)O)cc2F)c(Cl)cc1C(=O)O)c1ccc(-n2ccnc2)nn1 [Compound 196],7.00 to 8.00,6.30 to 7.30
O=C(Nc1cc(OCCCOc2cc(NC(=O)c3ccc(-n4ccnc4)nn3)c(C(=O)O)cc2F)ccc1C(=O)O)c1ccc(-n2ccnc2)nn1 [Compound 203],7.00 to 8.00,5.30 to 6.30

# Now from value to compound:
pIC50 (human STING protein),pEC50 (THP-1 Lucia ISG cells),Structure (SMILES)
7.00 to 8.00,6.30 to 7.30,O=C(Nc1cc(CCc2cc(NC(=O)c3ccc(-n4ccnc4)nn3)c(C(=O)O)cc2F)c(F)cc1C(=O)O)c1ccc(-n2ccnc2)nn1 [Compound 187]
7.00 to 8.00,6.30 to 7.30,O=C(Nc1cc(CCOc2cc(NC(=O)c3ccc(-n4ccnc4)nn3)c(C(=O)O)cc2Cl)c(F)cc1C(=O)O)c1ccc(-n2ccnc2)nn1 [Compound 197]
7.00 to 8.00,6.30 to 7.30,O=C(Nc1cc(CCCCc2cc(NC(=O)c3ccc(-n4ccnc4)nn3)c(C(=O)O)cc2F)c(F)cc1C(=O)O)c1ccc(-n2ccnc2)nn1 [Compound 202]
